Laboratory results as given in ChEMBL document CHEMBL1124302, “Nucleoside conjugates. 10. Synthesis and antitumor activity of 1-beta-D-arabinofuranosylcytosine 5'-diphosphate-1,2-dipalmitins” (J Med Chem, 1988).
Values joined by “and” are separate entries in the source; they are usually repeats but may differ in a detail not shown here. Identical values can stand only once.

Assays:
Assay type in all cases: functional
Mus musculus [1] = species on record: Mus musculus; test: Percentage increase in life span after 17-29 days
Mus musculus [2] = species on record: Mus musculus; test: Percentage increase in life span after 17-35 days
Mus musculus [3] = test: No of survivors after 45 days ata dose of 400 mg/kg/day
Mus musculus [4] = test: No of survivors after 45 days ata dose of 80 mg/kg/day
Mus musculus [5] = test: Weight change on day 8 in L1210/ara-C (I) Lymphoid Leukemia in mice( ip implanted) at a dose of 80 mg/kg/day (qd=1-5); settings: route intraperitoneal
Mus musculus [6] = test: Weight change on day 8 in L1210/ara-C (I) Lymphoid Leukemia in mice( ip implanted) at a dose of 400 mg/kg/day (qd=1); settings: route intraperitoneal
Mus musculus [7] = species on record: Mus musculus; test: Percentage increase in life span after 8->45 days
Mus musculus [8] = species on record: Mus musculus; test: Percentage increase in life span after 8-9 days
Mus musculus [9] = species on record: Mus musculus; test: Percentage increase in life span after 29->45 days
Mus musculus [10] = species on record: Mus musculus; test: Percentage increase in life span after 35->45 days
Mus musculus [11] = species on record: Mus musculus; test: Percentage increase in life span after 7-8 days
Mus musculus [12] = test: No of survivors after 45 dose ata dose of 300 mg/kg/day
Mus musculus [13] = test: No of survivors after 45 dose ata dose of 60 mg/kg/day
Mus musculus [14] = species on record: Mus musculus; test: Dose producing greatest increase in life span expressed as optimum dose (L1210/ara-C I) (qd 1,5,9)
Mus musculus [15] = test: No of survivors after 45 days ata dose of 300 60 mg/kg/day
Mus musculus [16] = test: No of survivors after 45 days ata dose of 300 mg/kg/day
Mus musculus [17] = test: No of survivors after 45 dose ata dose of 133 mg/kg/day
Mus musculus [18] = species on record: Mus musculus; test: Dose producing greatest increase in life span expressed as optimum dose (L1210/ara-C II) (qd 1)
Mus musculus [19] = test: Weight change on day 8 in L1210/ara-C (I) Lymphoid Leukemia in mice( ip implanted) at a dose of 133 mg/kg/day (qd=1,5,9); settings: route intraperitoneal
Mus musculus [20] = test: Weight change on day 8 in L1210/ara-C (I) Lymphoid Leukemia in mice( ip implanted) at a dose of 300 mg/kg/day (qd=1); settings: route intraperitoneal
Mus musculus [21] = test: Weight change on day 8 in L1210/ara-C (I) Lymphoid Leukemia in mice( ip implanted) at a dose of 60 mg/kg/day (qd=1-5); settings: route intraperitoneal
Mus musculus [22] = species on record: Mus musculus; test: Percentage increase in life span after 9-11 days
Mus musculus [23] = species on record: Mus musculus; test: Percentage increase in life span after 7-14 days
Mus musculus [24] = test: No of survivors after 45 days ata dose of 19 and 38 mg/kg/day
Mus musculus [25] = test: No of survivors after 45 days ata dose of 95 and 190 mg/kg/day
Mus musculus [26] = test: Weight change on day 8 in L1210/ara-C (I) Lymphoid Leukemia in mice( ip implanted) at a dose of 19 and 38 mg/kg/day (qd=1-5); settings: route intraperitoneal
Mus musculus [27] = test: Weight change on day 8 in L1210/ara-C (I) Lymphoid Leukemia in mice( ip implanted) at a dose of 95 and 190 mg/kg/day (qd=1); settings: route intraperitoneal
Mus musculus [28] = species on record: Mus musculus; test: Percentage increase in life span after 10 days
Mus musculus [29] = species on record: Mus musculus; test: Percentage increase in life span after 11-12 days
Mus musculus [30] = test: Weight change on day 8 in L1210/ara-C (I) Lymphoid Leukemia in mice( ip implanted) at a dose of 95 and 190 mg/kg/day; settings: route intraperitoneal
Mus musculus [31] = test: weight change on day 8 in L1210/ara-C (I) Lymphoid Leukemia in mice( ip implanted) at a dose of 19 and 38 mg/kg/day; settings: route intraperitoneal
Mus musculus [32] = species on record: Mus musculus; test: Percentage increase in life span after 9-12 days
Mus musculus [33] = species on record: Mus musculus; test: Percentage increase in life span after 12-13days
Mus musculus [34] = species on record: Mus musculus; test: Percentage increase in life span after 13-15 days
Mus musculus [35] = test: No of survivors after 45 days ata dose of 60 mg/kg/day
Mus musculus [36] = test: No of survivors after 45 days at a dose of 400 mg/kg/day
Mus musculus [37] = test: weight change on day 8 in L1210/ara-C (I) Lymphoid Leukemia in mice( ip implanted) at a dose of 60 mg/kg/day (qd=1-5); settings: route intraperitoneal
Mus musculus [38] = test: weight change on day 8 in L1210/ara-C (I) Lymphoid Leukemia in mice( ip implanted) at a dose of 100 mg/kg/day (qd=1,5,9); settings: route intraperitoneal
Mus musculus [39] = test: No of survivors after 45 days ata dose of 100 mg/kg/day
Mus musculus [40] = species on record: Mus musculus; test: Percentage increase in life span after 15-18 days
Mus musculus [41] = species on record: Mus musculus; test: Percentage increase in life span after 17-21 days
Mus musculus [42] = species on record: Mus musculus; test: Percentage increase in life span after 7 days
Mus musculus [43] = species on record: Mus musculus; test: Dose producing greatest increase in life span expressed as optimum dose (L1210/ara-C I) (qd 1)
Mus musculus [44] = species on record: Mus musculus; test: Dose producing greatest increase in life span expressed as optimum dose (L1210/ara-C I) (qd 1-15)
Mus musculus [45] = species on record: Mus musculus; test: Dose producing greatest increase in life span expressed as optimum dose (L1210/ara-C I) (qd 1-5)
Mus musculus [46] = test: (§1) No of survivors after 45 days at a dose of 100 mg/kg/day
Mus musculus [47] = test: as §1; remark: listed apart in the source
Mus musculus [48] = test: (§2) No of survivors after 45 days at a dose of 200 mg/kg/day
Mus musculus [49] = test: as §2; remark: listed apart in the source
Mus musculus [50] = test: No of survivors after 45 days at a dose of 300 mg/kg/day
Mus musculus [51] = test: (§3) No of survivors after 45 days at a dose of 60 mg/kg/day
Mus musculus [52] = test: as §3; remark: listed apart in the source
Mus musculus [53] = species on record: Mus musculus; test: Dose producing greatest increase in life span expressed as optimum dose (L1210/ara-C I) (qd 1-9)
Mus musculus [54] = species on record: Mus musculus; test: Dose producing greatest increase in life span expressed as optimum dose (L1210/ara-C II) (qd 1-5)
Mus musculus [55] = test: Weight change on day 8 in L1210/ara-C (I) Lymphoid Leukemia in mice( ip implanted) at a dose of 100 mg/kg/day (qd=1,5,9); settings: route intraperitoneal
Mus musculus [56] = test: Weight change on day 8 in L1210/ara-C (I) Lymphoid Leukemia in mice( ip implanted) at a dose of 200 mg/kg/day (qd=1); settings: route intraperitoneal
Mus musculus [57] = test: Weight change on day 8 in L1210/ara-C (I) Lymphoid Leukemia in mice( ip implanted) at a dose of 60 mg/kg/day (qd=1-15); settings: route intraperitoneal
Mus musculus [58] = test: Weight change on day 8 in L1210/ara-C (I) Lymphoid Leukemia in mice( ip implanted) at a dose of 60 mg/kg/day (qd=1-9); settings: route intraperitoneal

CCCCCCCCCCCCCCCC(=O)OC[C@@H](COP(=O)(O)OP(=O)(O)OC[C@H]1O[C@@H](n2ccc(N)nc2=O)[C@@H](O)[C@@H]1O)OC(=O)CCCCCCCCCCCCCCC
ILS (Mus musculus [1]): 121% | ILS (Mus musculus [2]): 100% | No. of survivors (Mus musculus [3]): 0 | No. of survivors (Mus musculus [4]): 0 | Weight change (Mus musculus [5]): -0.48 g mouse-1 | Weight change (Mus musculus [6]): 0.18 g mouse-1

CCCCCCCCCCCCCCCC(=O)OC[C@H](COP(=O)(O)OP(=O)(O)OC[C@H]1O[C@@H](n2ccc(N)nc2=O)[C@@H](O)[C@@H]1O)OC(=O)CCCCCCCCCCCCCCC
ILS (Mus musculus [7]): >400% | ILS (Mus musculus [8]): -11% | ILS (Mus musculus [9]): >400% | ILS (Mus musculus [10]): >374% | ILS (Mus musculus [11]): -11% | No. of survivors (Mus musculus [12]): 4 | No. of survivors (Mus musculus [13]): 5 | Optimal dose (Mus musculus [14]): 133 mg·µM/kg | No. of survivors (Mus musculus [15]): 0 | No. of survivors (Mus musculus [16]): 0 | No. of survivors (Mus musculus [17]): 5 | Optimal dose (Mus musculus [18]): 300 mg·µM/kg | Weight change (Mus musculus [19]): -0.53 g mouse-1 | Weight change (Mus musculus [20]): -0.04 g mouse-1 | Weight change (Mus musculus [21]): -2.72 g mouse-1

CCCCCCCCCCCCCCCC(=O)OC[C@H](COP(=O)(O)O)OC(=O)CCCCCCCCCCCCCCC.Nc1ccn([C@@H]2O[C@H](COP(=O)(O)O)[C@@H](O)[C@@H]2O)c(=O)n1
ILS (Mus musculus [22]): 5% | ILS (Mus musculus [23]): 16% | No. of survivors (Mus musculus [24]): 0 | No. of survivors (Mus musculus [25]): 0 | Weight change (Mus musculus [26]): -1.08 g mouse-1 | Weight change (Mus musculus [27]): -0.5 g mouse-1

CCCCCCCCCCCCCCCC(=O)OC[C@@H](COP(=O)(O)O)OC(=O)CCCCCCCCCCCCCCC.Nc1ccn([C@@H]2O[C@H](COP(=O)(O)O)[C@@H](O)[C@@H]2O)c(=O)n1
ILS (Mus musculus [28]): 5% | ILS (Mus musculus [29]): 16% | No. of survivors (Mus musculus [24]): 0 | No. of survivors (Mus musculus [25]): 0 | Weight change (Mus musculus [30]): -0.82 g mouse-1 | Weight change (Mus musculus [31]): -1.58 g mouse-1

CCCCCCCCCCCCCCCC(=O)OCC(COP(=O)(O)OP(=O)(O)OC[C@H]1O[C@@H](n2ccc(N)nc2=O)[C@@H](O)[C@@H]1O)OC(=O)CCCCCCCCCCCCCCC (mixture of isomers)
ILS (Mus musculus [32]): >400% | ILS (Mus musculus [33]): 317% | ILS (Mus musculus [34]): 233% | Optimal dose (Mus musculus [14]): 100 mg·µM/kg | No. of survivors (Mus musculus [35]): 2 | No. of survivors (Mus musculus [36]): 4 | Weight change (Mus musculus [37]): -2.92 g mouse-1 | Weight change (Mus musculus [38]): -1.35 g mouse-1 | No. of survivors (Mus musculus [39]): 2 | Weight change (Mus musculus [6]): -2.07 g mouse-1

Nc1ccn([C@@H]2O[C@H](CO)[C@@H](O)[C@@H]2O)c(=O)n1 [CYTARABINE]
ILS (Mus musculus [32]): 17% | ILS (Mus musculus [33]): 50% | ILS (Mus musculus [34]): 65% | ILS (Mus musculus [40]): 82% | ILS (Mus musculus [41]): 147% | ILS (Mus musculus [11]): -22% and -11% | ILS (Mus musculus [42]): -22% | Optimal dose (Mus musculus [43]): 200 µM/kg | Optimal dose (Mus musculus [14]): 100 µM/kg | Optimal dose (Mus musculus [44]): 60 µM/kg | Optimal dose (Mus musculus [45]): 60 µM/kg | No. of survivors (Mus musculus [46]): 0 | No. of survivors (Mus musculus [47]): 0 | No. of survivors (Mus musculus [48]): 0 | No. of survivors (Mus musculus [49]): 0 | No. of survivors (Mus musculus [50]): 0 | No. of survivors (Mus musculus [51]): 0 | No. of survivors (Mus musculus [52]): 0 | Optimal dose (Mus musculus [53]): 60 µM/kg | Optimal dose (Mus musculus [54]): 100 µM/kg and 200 µM/kg and 300 µM/kg | Weight change (Mus musculus [55]): 2.6 g mouse-1 | Weight change (Mus musculus [56]): 3.6 g mouse-1 | Weight change (Mus musculus [57]): -0.93 g mouse-1 | Weight change (Mus musculus [21]): -0.87 g mouse-1 | Weight change (Mus musculus [58]): -1.8 g mouse-1
